Data set [1] relates to scopolamine (SCOP)-induced acquisition impairment of passive avoidance response in rats. Briefly: Passive avoidance task, scopolamine-induced acquisition impairment. The class given is in vivo, rat. Conditions: ferulic acid at 50-100 mg/ml (printed), i.p. 1 hour before training trial, scopolamine 1 mg/kg i.p., FIG. 1. The method, then: (§1) Male Sprague-Dawley rats, weighing 200-250 grams, were housed in groups of six with free access to food and water and kept in a regulated environment (23±1° C.), wherein a 12-hour light-dark cycle (08:00-20:00 hours light) was maintained. Each experimental group included 12-18 rats. Rats were trained in a step-through passive avoidance task (Muromachi Kikai Co. Ltd. Japan). The apparatus consisted of two compartments having a steel-rod grid floor (36 parallel steel rods, 0.3 cm in diameter set 1.5 cm apart). One of the compartments (48×20×30 cm) was equipped with a 20 Watt lamp located centrally at a height of 30 cm, and the other was a dark compartment of the same size connected through a guillotine door (5×5 cm). The dark room was used during the experimental sessions that were conducted between 09:00 and 17:00. During the trial training, the guillotine door connecting the light and dark compartment was kept closed. After each rat was placed in the light compartment with its back to the guillotine door, the door was opened and simultaneously the time (step-through latency; STL) taken by the rat to enter the dark compartment was measured with a stopwatch^(14). Once the rat entered the dark compartment, the door was closed. An inescapable scrambled footshock (1.0 mA for 2 sec) was then delivered through the grid floor. […]

Data set [2] deals with mecamylamine-induced acquisition impairment of passive avoidance response in rats. Briefly: Passive avoidance task, mecamylamine-induced acquisition impairment. Type of data set: in vivo, rat. Conditions: ferulic acid at 50-100 mg/ml (printed), i.p. 1 hour before training trial, mecamylamine 10 mg/kg i.p., FIG. 2. The method, then:
as §1

Data set [3] deals with pirenzepine-induced acquisition impairment of passive avoidance response in rats. The data set can be described thus: Passive avoidance task, pirenzepine-induced acquisition impairment. Type of data set: in vivo, rat. Conditions: ferulic acid at 50-100 mg/ml (printed), i.p., pirenzepine 1 mg/kg i.p., FIG. 3. How it is done: as §1
The subject of data set [4] is cycloheximide (CXM)-induced memory storage impairment of passive avoidance response in rats. Briefly: Passive avoidance task, cycloheximide-induced memory consolidation impairment. Particulars: ferulic acid at 50-100 mg/ml (printed), administered 60 minutes before the training trial, cycloheximide 1.5 mg/kg s.c., FIGS. 4-5. Type of data set: in vivo, rat. How it is done: as §1

Data set [5] concerns scopolamine plus mecamylamine-induced acquisition impairment of passive avoidance response in rats. Briefly: Passive avoidance task, scopolamine plus mecamylamine-induced acquisition impairment. The class given is in vivo, rat. Particulars: ferulic acid at 50-100 mg/ml (printed), scopolamine and mecamylamine co-administered under the threshold dosage, FIG. 6. How it is done: as §1

Data set [6] relates to scopolamine (SCOP)-induced acquisition impairment of passive avoidance response in rats. The data set can be described thus: Passive avoidance task, scopolamine-induced impairment with peripheral antagonist scopolamine methylbromide. Conditions: FIG. 7. The class given is in vivo, rat. The method, then:
as §1

Data set [7] has as its system AF64A-induced impairment of passive avoidance response in rats. Briefly: Passive avoidance task, AF64A-induced impairment. The class given is in vivo, rat. Conditions: ferulic acid at 50-100 mg/kg, AF64-A 3 nmol/μl/brain into lateral ventricle 10 days before training, FIG. 8. How it is done: Male Sprague-Dawley rats, weighing 200-250 grams, were housed in groups of six with free access to food and water and kept in a regulated environment (23±1° C.), wherein a 12-hour light-dark cycle (08:00-20:00 hours light) was maintained. Each experimental group included 12-18 rats.
Rats were trained in a step-through passive avoidance task (Muromachi Kikai Co. Ltd. Japan). The apparatus consisted of two compartments having a steel-rod grid floor (36 parallel steel rods, 0.3 cm in diameter set 1.5 cm apart). One of the compartments (48×20×30 cm) was equipped with a 20 Watt lamp located centrally at a height of 30 cm, and the other was a dark compartment of the same size connected through a guillotine door (5×5 cm). […]
During the trial training, the guillotine door connecting the light and dark compartment was kept closed. After each rat was placed in the light compartment with its back to the guillotine door, the door was opened and simultaneously the time (step-through latency; STL) taken by the rat to enter the dark compartment was measured with a stopwatch^(14). […] The rat was once again placed in the light compartment and as in the case of the training trial, the guillotine door was opened and the step-through latency was recorded and used as a measure of retention. […]
The step-through latency of rats in light compartment was recorded according to the method described in Example 1. […]

Data set [8] deals with deficit of place learning in the Morris water maze task induced by scopolamine in rats. Briefly: Morris water maze test, scopolamine-induced deficit of place learning. Particulars: 50-100 mg/kg ferulic acid i.p., scopolamine 0.3 mg/kg i.p., FIG. 9. The class given is in vivo, rat.
Protocol: The water maze apparatus (Columbus Instruments Intl. Co., USA) was used in this Example. The swimming time and track of rats in the water maze were monitored by the Videomex V System and recorded by computer software. The water maze apparatus consisted of a water tank of 180 cm in diameter and 35 cm in height. The water stained as milk-white color was poured into the tank (25 cm in depth, 23±1° C.) before the training trial. The tank was conceptually divided into the 4 quadrants of east, west, south and north on the computer. An acrylic plate of 10 cm in diameter was placed at the north quadrant 1 cm below the water level. Rats were trained 4 times per day as one training course for 5 days. In one training course, each rat swam to the acrylic plate from 4 different quadrants, respectively. 10 seconds after swimming to the acrylic plate, the rat was returned to the home cage. After 30 seconds of rest, the next training session was carried out. The swimming time from the beginning to the acrylic plate was recorded, and an upper cut-off time of 60 seconds was set^(18). Ferulic acid (Sigma) was freshly dissolved in carboxy-methyl cellulose, and administered to rats (50, 100 mg/kg, i.p.) 1 hour before the training trial in combination with the following drug: scopolamine HBr (muscarinic receptor blocker; 0.3 mg/kg, i.p.) 30 minutes before the training trial for inducing acquisition impairment.
In data set [9] the test system is cerebral blood flow rate in rats. Briefly: Cerebral blood flow rate by laser Doppler flowmetry. Particulars: 50-100 mg/kg ferulic acid, from 10 to 40 minutes after administration, FIG. 10. The class given is in vivo, rat. The method, then:
The cerebral blood flow rate was measured by laser Doppler flowmetry in rats according to the procedure described in Morikawa, E. et al.^(19).

The conditions of data set [10]: administered intravenously; reported by Xu et al.; cited from earlier work.

As for `COc1cc(C=CC(=O)O)ccc1O` [ferulic acid, 4-hydroxy-3-methoxycinnamic acid], in data set [1], the “effect on scopolamine-induced acquisition impairment (step-through latency, passive avoidance)” value is listed as “attenuates”. For the same compound, the “effect on mecamylamine-induced acquisition impairment (step-through latency, passive avoidance)” value in [2] was “attenuates”. For the same compound, the “effect on pirenzepine-induced acquisition impairment (step-through latency, passive avoidance)” value in data set [3] was “counteracts”. Besides, in data set [4], the “effect on CXM-induced consolidation impairment (step-through latency, passive avoidance)” value is listed as “significantly ameliorates”. Also, the “effect on learning impairment induced by scopolamine plus mecamylamine (passive avoidance)” value in [5] is reported as “attenuates”. The “blocking of the counteracting effects of ferulic acid on scopolamine-induced learning impairment by peripheral cholinergic antagonist scopolamine methylbromide” value in data set [6] (ferulic acid 100 mg/kg with scopolamine methylbromide 0.5 mg/kg i.p.) is recorded as “does not block”. Also, the “effect on scopolamine-induced acquisition impairment (passive avoidance)” value in data set [6] (ferulic acid at 100 mg/kg, scopolamine 0.3 mg/kg i.p.) is “ameliorates”. Besides, the “effect on memory impairment induced by AF64A (passive avoidance)” value in data set [7] is recorded as “counteracts”. Besides, in data set [8], the “effect on scopolamine-induced acquisition impairment in a water maze” value was “ameliorates”. The “effect on cerebral blood flow rate” value in data set [9] is “enhances”. For the same compound, the “half lethal dose (LD50)” value in data set [10] was 866 ± 29 mg/kg.
